Results reported in US11104660B2, “PDE4D inhibitors” (TETRA DISCOVERY PARTNERS, INC., priority 2019, dated 2021).
Read-outs that look alike come from different tables or passages of the source.

Legend:
PDE4D [1] = assay: PET imaging of 11C-labeled Compound A in non-human primate brain (VT, uptake); assay type: in vivo, cynomolgus non-human primates (Macaca fascicularis); settings: for VT (volume of distribution): 90 min
Protocol: The regional distribution and pharmacokinetics of ^11C-labeled compounds as described herein were evaluated on non-human primates via PET imaging.
(§1) Two male non-naïve cynomolgus non-human primates (Macaca fascicularis) (“Subject 1” and “Subject 2”) were utilized in this study (7.0 and 5.5 kg). Subjects had previously undergone surgery for placement of arterial access ports for blood collection from the iliac artery. Each subject underwent a brain MR in a Philips 1.5T Intera scanner using a 3D T1 FFE sequence for subsequent registration with PET and application of a cynomolgus brain region of interest atlas for determination of regional time-activity curves. PET scans were conducted in each subject under baseline condition (i.e., Compound A, only) and 15 minutes after a 10 minute infusion of Compound B at 3 mg/kg (i.e. blocking condition). Compound B is a known PDE4D ligand, alternatively referred to as BPN14770.
PET scans were conducted with a Siemens Focus 220 microPET scanner. Subjects were anesthetized with ketamine 10 mg/kg IM approximately 45 minutes prior to Compound A injection. Atropine sulfate 0.05 mg/kg IM was administered approximately 35 minutes prior to Compound A injection. Subjects were intubated and maintained on isoflurane (2-2.5%) and oxygen (2 L/min). Indwelling catheters were placed in the saphenous veins for drug infusion, tracer injection and fluids (LRS 10 mL/kg/hr IV). Subjects were transported to the PET imaging bed, positioned, and monitored for body temperature, heart rate, expired CO2, respiration rate, and pulse O2.
(§2) A dynamic 90 (Subject 1) or 120 (Subject 2) minute PET scan acquisition was initiated at the start of Compound A injection, administered over 3 minutes via an infusion pump targeting an injected activity of 5 mCi. Relative to time of Compound A injection, arterial blood samples were collected in K2EDTA at −10, 0.75, 1.5, 2.25, 3, 4, 5, 10, 15, 30, 45, 60, 90 and 120 min. For each sample, an aliquot (200 uL) was gamma counted for radioactivity concentration determination, then processed to plasma. For −10, 5, 15, 30, 60, 90, 120 min plasma samples, radio HPLC was performed for determination of parent fraction of Compound A, and −10 min samples spiked with Compound A were used for stability analysis and determination of plasma free fraction. Aliquots (100 uL) of plasma samples collected at −10, 5, 15, 30, 60, 90, 120 min were frozen for subsequent determination of drug concentration levels.
At the conclusion of PET scan acquisition, an x-ray CT scan by an 8 slice NeuroLogica CereTom OTOscan of each Subject was collected of the head at 120 kVp, 4 mAs, slice thickness 0.625 mm and processed using filtered back projection. The CT scan was used for co-registration to PET for attenuation and scatter correction of the reconstructed PET scan. Listmode PET data were binned into 6×0.5 min, 3×1 min, 2×2 min and 22 ×5 min frames. Binned sinogram data were reconstructed by filtered backprojection.
Reconstructed PET images were analyzed using PMOD software. PET scans were transformed into MR template space via rigid PET-to-MR and affine+nonlinear MR-to-template registrations. Time-activity curves were generated from regions of interest (ROIs) defined on the MR template including the anterior cingulate, cerebellum, dorsolateral prefrontal cortex, entorhinal cortex, occipital cortex, striatum and thalamus. Peak uptake in the brain was between about 3.2% and 5.6% of the injected dose.
(§3) Volume of distribution (VT) (mL/cm^3) of Compound A was estimated with the 2-tissue compartment (2TC) model and Logan graphical analysis (LGA, t*=30), for baseline and blocking scans, using 90 min of data. VT at baseline and blocking in ROIs were used to compute occupancy of Compound B via the occupancy (Lassen) plot. Time stability of VT estimated from 2TC and LGA models were assessed for both animals from 90 min or 120 minutes of data for baseline and blocking scans.

[2] = Plasma free fraction of Compound A (spiked -10 min plasma samples); assay type: in vitro ADME, cynomolgus non-human primates (Macaca fascicularis); settings: cynomolgus monkey, read-out: fp (%) Plasma free fraction
Protocol: as §2

PDE4D [3] = assay: Occupancy of Compound B by PET with Compound A (Lassen plot); assay type: in vivo, cynomolgus non-human primates (Macaca fascicularis); settings: Compound B 3 mg/kg infusion
From the text: as §1, §3

## [2H]C([2H])(c1cn[nH]c1)c1ccc(O[11CH3])c(-c2cccc([N+](=O)[O-])c2)n1 [Compound A]
PDE4D [1]; Anterior Cingulate, Subject 1, 2TC, baseline
  VT (volume of distribution): 15.8 mL/cm^3
PDE4D [1]; Anterior Cingulate, Subject 1, 2TC, blocking (Compound B 3 mg/kg)
  VT (volume of distribution): 8.8 mL/cm^3
PDE4D [1]; Anterior Cingulate, Subject 1, LGA, baseline
  VT (volume of distribution): 13.8 mL/cm^3
PDE4D [1]; Anterior Cingulate, Subject 1, LGA, blocking (Compound B 3 mg/kg)
  VT (volume of distribution): 8.9 mL/cm^3
PDE4D [1]; Anterior Cingulate, Subject 2, 2TC, baseline
  VT (volume of distribution): 13.7 mL/cm^3
PDE4D [1]; Anterior Cingulate, Subject 2, 2TC, blocking (Compound B 3 mg/kg)
  VT (volume of distribution): 10.6 mL/cm^3
PDE4D [1]; Anterior Cingulate, Subject 2, LGA, baseline
  VT (volume of distribution): 14.6 mL/cm^3
PDE4D [1]; Anterior Cingulate, Subject 2, LGA, blocking (Compound B 3 mg/kg)
  VT (volume of distribution): 10.4 mL/cm^3
PDE4D [1]; Cerebellum, Subject 1, 2TC, baseline
  VT (volume of distribution): 11.5 mL/cm^3
PDE4D [1]; Cerebellum, Subject 1, 2TC, blocking (Compound B 3 mg/kg)
  VT (volume of distribution): 7.6 mL/cm^3
PDE4D [1]; Cerebellum, Subject 1, LGA, baseline
  VT (volume of distribution): 10.2 mL/cm^3
PDE4D [1]; Cerebellum, Subject 1, LGA, blocking (Compound B 3 mg/kg)
  VT (volume of distribution): 7.7 mL/cm^3
PDE4D [1]; Cerebellum, Subject 2, 2TC, baseline
  VT (volume of distribution): 8.6 mL/cm^3
PDE4D [1]; Cerebellum, Subject 2, 2TC, blocking (Compound B 3 mg/kg)
  VT (volume of distribution): 9.6 mL/cm^3
PDE4D [1]; Cerebellum, Subject 2, LGA, baseline
  VT (volume of distribution): 9.2 mL/cm^3
PDE4D [1]; Cerebellum, Subject 2, LGA, blocking (Compound B 3 mg/kg)
  VT (volume of distribution): 9.7 mL/cm^3
PDE4D [1]; Dorsolateral Frontal Cortex, Subject 1, 2TC, baseline
  VT (volume of distribution): 26.2 mL/cm^3
PDE4D [1]; Dorsolateral Frontal Cortex, Subject 1, 2TC, blocking (Compound B 3 mg/kg)
  VT (volume of distribution): 10.2 mL/cm^3
PDE4D [1]; Dorsolateral Frontal Cortex, Subject 1, LGA, baseline
  VT (volume of distribution): 22.9 mL/cm^3
PDE4D [1]; Dorsolateral Frontal Cortex, Subject 1, LGA, blocking (Compound B 3 mg/kg)
  VT (volume of distribution): 10.1 mL/cm^3
PDE4D [1]; Dorsolateral Frontal Cortex, Subject 2, 2TC, baseline
  VT (volume of distribution): 15.2 mL/cm^3
PDE4D [1]; Dorsolateral Frontal Cortex, Subject 2, 2TC, blocking (Compound B 3 mg/kg)
  VT (volume of distribution): 12.3 mL/cm^3
PDE4D [1]; Dorsolateral Frontal Cortex, Subject 2, LGA, baseline
  VT (volume of distribution): 15.5 mL/cm^3
PDE4D [1]; Dorsolateral Frontal Cortex, Subject 2, LGA, blocking (Compound B 3 mg/kg)
  VT (volume of distribution): 10.6 mL/cm^3
PDE4D [1]; Enthorinal Cortex, Subject 1, 2TC, baseline
  VT (volume of distribution): 14.6 mL/cm^3
PDE4D [1]; Enthorinal Cortex, Subject 1, 2TC, blocking (Compound B 3 mg/kg)
  VT (volume of distribution): 8.1 mL/cm^3
PDE4D [1]; Enthorinal Cortex, Subject 1, LGA, baseline
  VT (volume of distribution): 11.7 mL/cm^3
PDE4D [1]; Enthorinal Cortex, Subject 1, LGA, blocking (Compound B 3 mg/kg)
  VT (volume of distribution): 7.4 mL/cm^3
PDE4D [1]; Enthorinal Cortex, Subject 2, 2TC, baseline
  VT (volume of distribution): 10.8 mL/cm^3
PDE4D [1]; Enthorinal Cortex, Subject 2, 2TC, blocking (Compound B 3 mg/kg)
  VT (volume of distribution): 10.1 mL/cm^3
PDE4D [1]; Enthorinal Cortex, Subject 2, LGA, baseline
  VT (volume of distribution): 10.5 mL/cm^3
PDE4D [1]; Enthorinal Cortex, Subject 2, LGA, blocking (Compound B 3 mg/kg)
  VT (volume of distribution): 7.8 mL/cm^3
PDE4D [1]; Hippocampus, Subject 1, 2TC, baseline
  VT (volume of distribution): 30.3 mL/cm^3
PDE4D [1]; Hippocampus, Subject 1, 2TC, blocking (Compound B 3 mg/kg)
  VT (volume of distribution): 7.4 mL/cm^3
PDE4D [1]; Hippocampus, Subject 1, LGA, baseline
  VT (volume of distribution): 19.4 mL/cm^3
PDE4D [1]; Hippocampus, Subject 1, LGA, blocking (Compound B 3 mg/kg)
  VT (volume of distribution): 7.5 mL/cm^3
PDE4D [1]; Hippocampus, Subject 2, 2TC, baseline
  VT (volume of distribution): 19.8 mL/cm^3
PDE4D [1]; Hippocampus, Subject 2, 2TC, blocking (Compound B 3 mg/kg)
  VT (volume of distribution): 11.1 mL/cm^3
PDE4D [1]; Hippocampus, Subject 2, LGA, baseline
  VT (volume of distribution): 17.4 mL/cm^3
PDE4D [1]; Hippocampus, Subject 2, LGA, blocking (Compound B 3 mg/kg)
  VT (volume of distribution): 11.0 mL/cm^3
PDE4D [1]; Occipital Cortex, Subject 1, 2TC, baseline
  VT (volume of distribution): 17.8 mL/cm^3
PDE4D [1]; Occipital Cortex, Subject 1, 2TC, blocking (Compound B 3 mg/kg)
  VT (volume of distribution): 8.4 mL/cm^3
PDE4D [1]; Occipital Cortex, Subject 1, LGA, baseline
  VT (volume of distribution): 15.1 mL/cm^3
PDE4D [1]; Occipital Cortex, Subject 1, LGA, blocking (Compound B 3 mg/kg)
  VT (volume of distribution): 8.0 mL/cm^3
PDE4D [1]; Occipital Cortex, Subject 2, 2TC, baseline
  VT (volume of distribution): 12.9 mL/cm^3
PDE4D [1]; Occipital Cortex, Subject 2, 2TC, blocking (Compound B 3 mg/kg)
  VT (volume of distribution): 10.6 mL/cm^3
PDE4D [1]; Occipital Cortex, Subject 2, LGA, baseline
  VT (volume of distribution): 13.1 mL/cm^3
PDE4D [1]; Occipital Cortex, Subject 2, LGA, blocking (Compound B 3 mg/kg)
  VT (volume of distribution): 10.0 mL/cm^3
PDE4D [1]; PET image analysis
  Brain entry: readily entered the brain
  Regional uptake: consistent with the known distribution of Compound B
PDE4D [1]; Striatum, Subject 1, 2TC, baseline
  VT (volume of distribution): 14.9 mL/cm^3
PDE4D [1]; Striatum, Subject 1, 2TC, blocking (Compound B 3 mg/kg)
  VT (volume of distribution): 9.0 mL/cm^3
PDE4D [1]; Striatum, Subject 1, LGA, baseline
  VT (volume of distribution): 13.9 mL/cm^3
PDE4D [1]; Striatum, Subject 1, LGA, blocking (Compound B 3 mg/kg)
  VT (volume of distribution): 9.2 mL/cm^3
PDE4D [1]; Striatum, Subject 2, 2TC, baseline
  VT (volume of distribution): 13.2 mL/cm^3
PDE4D [1]; Striatum, Subject 2, 2TC, blocking (Compound B 3 mg/kg)
  VT (volume of distribution): 11.5 mL/cm^3
PDE4D [1]; Striatum, Subject 2, LGA, baseline
  VT (volume of distribution): 13.4 mL/cm^3
PDE4D [1]; Striatum, Subject 2, LGA, blocking (Compound B 3 mg/kg)
  VT (volume of distribution): 11.2 mL/cm^3
PDE4D [1]; Thalamus, Subject 1, 2TC, baseline
  VT (volume of distribution): 17.6 mL/cm^3
PDE4D [1]; Thalamus, Subject 1, 2TC, blocking (Compound B 3 mg/kg)
  VT (volume of distribution): 8.8 mL/cm^3
PDE4D [1]; Thalamus, Subject 1, LGA, baseline
  VT (volume of distribution): 15.7 mL/cm^3
PDE4D [1]; Thalamus, Subject 1, LGA, blocking (Compound B 3 mg/kg)
  VT (volume of distribution): 8.9 mL/cm^3
PDE4D [1]; Thalamus, Subject 2, 2TC, baseline
  VT (volume of distribution): 11.6 mL/cm^3
PDE4D [1]; Thalamus, Subject 2, 2TC, blocking (Compound B 3 mg/kg)
  VT (volume of distribution): 9.9 mL/cm^3
PDE4D [1]; Thalamus, Subject 2, LGA, baseline
  VT (volume of distribution): 12.1 mL/cm^3
PDE4D [1]; Thalamus, Subject 2, LGA, blocking (Compound B 3 mg/kg)
  VT (volume of distribution): 9.8 mL/cm^3
PDE4D [1]; high dose of Compound B
  Change of Compound A in regions of high uptake on blockage of PDE4D: substantial reduction
[2]; Subject 1, baseline
  fraction unbound: 0.059
[2]; Subject 1, blocking (Compound B 3 mg/kg)
  fraction unbound: 0.059
[2]; Subject 2, baseline
  fraction unbound: 0.067
[2]; Subject 2, blocking (Compound B 3 mg/kg)
  fraction unbound: 0.047

## NC(=O)Cc1ccc(Nc2cc(C(F)(F)F)nc(-c3cccc(Cl)c3)n2)cc1 [Compound B]
PDE4D [3]; Subject 1, 2TC
  Occupancy (%): 84%
PDE4D [3]; Subject 1, LGA
  Occupancy (%): 88%
PDE4D [3]; Subject 2, 2TC
  Occupancy (%): 82%
PDE4D [3]; Subject 2, LGA
  Occupancy (%): 73%
